From patent US10329294B2, “Pyrazolopyrimidine inhibitors of IRAK4 activity” (MERCK SHARP & DOHME CORP., priority 2015, dated 2019)
Counter-ions that a name gives are not always drawn.

target: IRAK4 (Homo sapiens (Human), UniProt Q9NWZ3); test: IRAK4 Kinase Assay; type: biochemical; conditions: IMAP fluorescence polarization, 0.5 nM GST tagged IRAK4, 100 μM ATP, 30 minutes at 25° C.; read-out: IRAK4 IC50
Sequence (Q9NWZ3 whole entry): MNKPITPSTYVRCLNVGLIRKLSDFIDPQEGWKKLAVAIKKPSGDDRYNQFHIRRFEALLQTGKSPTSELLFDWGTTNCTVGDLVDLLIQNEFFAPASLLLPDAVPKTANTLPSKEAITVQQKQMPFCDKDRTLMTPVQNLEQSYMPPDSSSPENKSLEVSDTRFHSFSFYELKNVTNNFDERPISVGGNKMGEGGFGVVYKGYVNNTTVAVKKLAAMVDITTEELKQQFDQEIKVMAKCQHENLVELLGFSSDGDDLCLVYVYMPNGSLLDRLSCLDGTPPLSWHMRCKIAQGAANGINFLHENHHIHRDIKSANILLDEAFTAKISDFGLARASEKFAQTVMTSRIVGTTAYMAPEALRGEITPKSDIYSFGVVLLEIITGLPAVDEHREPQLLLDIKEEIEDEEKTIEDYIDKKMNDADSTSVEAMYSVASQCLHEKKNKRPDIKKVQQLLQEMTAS

Row | IC50 | Compound
1 | 1 nM | N[C@H]1CCCC[C@H]1Nc1ccn2ncc(C(=O)Nc3cn(CC(F)(F)F)nc3C(F)(F)F)c2n1 [Example 295, 5-{[(1R,2S)-2-aminocyclohexyl]amino}-N-[1-(2,2,2-trifluoroethyl)-3-(trifluoromethyl)-1H-pyrazol-4-yl]pyrazolo[1,5-a]pyrimidine-3-carboxamide trifluoroacetate]
2 | 165 nM | N#Cc1cscc1NC(=O)c1cnn2ccc(N3CC4CCC3CN4)nc12 (stereo not drawn) [Example 145, N-(4-cyanothiophen-3-yl)-5-(2,5-diazabicyclo[2.2.2]oct-2-yl)pyrazolo[1,5-a]pyrimidine-3-carboxamide trifluoroacetate]
3 | 403 nM | N#Cc1ccccc1NC(=O)c1cnn2ccc(N3CC4CCC3CN4)nc12 (stereo not drawn) [Example 271, N-(2-cyanophenyl)-5-(2,5-diazabicyclo[2.2.2]oct-2-yl)pyrazolo[1,5-a]pyrimidine-3-carboxamide trifluoroacetate]
4 | 403 nM | O=C(Nc1ccsc1Cl)c1cnn2ccc(N3CCCNCC3)nc12 [Example 117, N-(2-chlorothiophen-3-yl)-5-(1,4-diazepan-1-yl)pyrazolo[1,5-a]pyrimidine-3-carboxamide trifluoroacetate]
5 | 44 nM | Cn1cc(NC(=O)c2cnn3ccc(N4C[C@@H]5CC[C@H]4CN5)nc23)c(C(F)(F)F)n1 (single isomer, unassigned) [Example 78, 5-[(1S,4S)- or (1R,4R)-2,5-diazabicyclo[2.2.2]oct-2-yl]-N-[1-methyl-3-(trifluoromethyl)-1H-pyrazol-4-yl]pyrazolo[1,5-a]pyrimidine-3-carboxamide trifluoroacetate]
6 | 126 nM | Cn1cc(NC(=O)c2cnn3ccc(N[C@@H]4CCCC(F)(F)[C@@H]4N)nc23)c(Br)n1 [Example 139, 5-{[(1R,2R)-2-amino-3,3-difluorocyclohexyl]amino}-N-(3-bromo-1-methyl-1H-pyrazol-4-yl)pyrazolo[1,5-a]pyrimidine-3-carboxamide trifluoroacetate]
7 | 245 nM | O=C(Nc1cscc1Br)c1cnn2ccc(N3CC4CCC3CN4)nc12 (stereo not drawn) [Example 124, N-(4-bromothiophen-3-yl)-5-(2,5-diazabicyclo[2.2.2]oct-2-yl)pyrazolo[1,5-a]pyrimidine-3-carboxamide trifluoroacetate]
8 | 2 nM | N[C@H]1CCCC[C@H]1Nc1ccn2ncc(C(=O)Nc3ccccc3Br)c2n1 [Example 113, 5-{[(1R,2S)-2-aminocyclohexyl]amino}-N-(2-bromophenyl)pyrazolo[1,5-a]pyrimidine-3-carboxamide trifluoroacetate]
9 | 179 nM | Cn1cc(NC(=O)c2cnn3ccc(N4CC5CC4CN5)nc23)c(C(F)(F)F)n1 (stereo not drawn) [Example 13, 5-(2,5-diazabicyclo[2.2.1]hept-2-yl)-N-[1-methyl-3-(trifluoromethyl)-1H-pyrazol-4-yl]pyrazolo[1,5-a]pyrimidine-3-carboxamide hydrochloride]
10 | 351 nM | N#Cc1ccccc1NC(=O)c1cnn2ccc(N3CCNCC4(CC4)C3)nc12 [Example 267, N-(2-cyanophenyl)-5-(5,8-diazaspiro[2.6]non-5-yl)pyrazolo[1,5-a]pyrimidine-3-carboxamide trifluoroacetate]
11 | 16 nM | N[C@H]1CCCC[C@H]1Nc1ccn2ncc(C(=O)Nc3ccccc3C(F)(F)F)c2n1 [Example 38, 5-{[(1R,2S)-2-aminocyclohexyl]amino}-N-[2-(trifluoromethyl)phenyl] pyrazolo[1,5-a]pyrimidine-3-carboxamide trifluoroacetate]
12 | 113 nM | Cn1cc(NC(=O)c2cnn3ccc(N4CCCNCC4)nc23)c(Cl)n1 [Example 148, N-(3-chloro-1-methyl-1H-pyrazol-4-yl)-5-(1,4-diazepan-1-yl)pyrazolo[1,5-a]pyrimidine-3-carboxamide trifluoroacetate]
13 | 0.5 nM | Cn1cc(NC(=O)c2cnn3ccc(N[C@@H]4CCCNC4)nc23)c(C(F)F)n1 [Example 91, N-[3-(difluoromethyl)-1-methyl-1H-pyrazol-4-yl]-5-[(3R)-piperidin-3-ylamino]pyrazolo[1,5-a]pyrimidine-3-carboxamide trifluoroacetate]
14 | 193 nM | N#Cc1sccc1NC(=O)c1cnn2ccc(N3CC4CCC3CN4)nc12 (stereo not drawn) [Example 110, N-(2-cyanothiophen-3-yl)-5-(2,5-diazabicyclo[2.2.2]oct-2-yl)pyrazolo[1,5-a]pyrimidine-3-carboxamide trifluoroacetate]
15 | 1460 nM | O=C(Nc1ccccc1C(F)F)c1cnn2ccc(N3CC4CCC3CN4)nc12 (stereo not drawn) [Example 146, 5-(2,5-diazabicyclo[2.2.2]oct-2-yl)-N-[2-(difluoromethyl)phenyl] pyrazolo[1,5-a]pyrimidine-3-carboxamide trifluoroacetate]
16 | 6060 nM | O=C(Nc1ccccc1I)c1cnn2ccc(N3CC4CCC3CN4)nc12 (stereo not drawn) [Example 103, 5-(2,5-diazabicyclo[2.2.2]oct-2-yl)-N-(2-iodophenyl)pyrazolo[1,5-a]pyrimidine-3-carboxamide trifluoroacetate]
17 | 1890 nM | N[C@@H]1[C@H](Nc2ccn3ncc(C(=O)Nc4ccccc4Br)c3n2)CCCC1(F)F [Example 108, 5-{[(1R,2R)-2-amino-3,3-difluorocyclohexyl]amino}-N-(2-bromophenyl)pyrazolo[1,5-a]pyrimidine-3-carboxamide trifluoroacetate]
18 | 19 nM | Cn1cc(NC(=O)c2cnn3ccc(N[C@@H]4CCCC[C@@H]4N4CCOCC4)nc23)c(C(F)(F)F)n1 [Example 264, N-(1-Methyl-3-(trifluoromethyl)-1H-pyrazol-4-yl)-5-(((1R,2S)-2-morpholinocyclohexyl)amino)pyrazolo[1,5-a]pyrimidine-3-carboxamide]
19 | 3820 nM | N[C@@H]1[C@H](Nc2ccn3ncc(C(=O)Nc4ccccc4C(F)(F)F)c3n2)CCCC1(F)F [Example 114, 5-{[(1R,2R)-2-amino-3,3-difluorocyclohexyl]amino}-N-[2-(trifluoromethyl)phenyl] pyrazolo[1,5-a]pyrimidine-3-carboxamide trifluoroacetate]

Row | Compound | IC50
20 | Cn1cc(NC(=O)c2cnn3ccc(N[C@H]4C(O)CCC[C@H]4N)nc23)c(C(F)(F)F)n1 (single isomer, unassigned) [Example 202, 5-{[(1R,2R)- or (1S,2S)-2-amino-6-hydroxycyclohexyl]amino}-N-[1-methyl-3-(trifluoromethyl)-1H-pyrazol-4-yl]pyrazolo[1,5-a]pyrimidine-3-carboxamide] | 4 nM
21 | Cn1cc(NC(=O)c2cnn3ccc(N[C@H]4CCCCC[C@H]4N)nc23)c(C(F)(F)F)n1 (relative stereo) [Example 33, 5-{[cis-2-aminocycloheptyl]amino}-N-[1-methyl-3-(trifluoromethyl)-1H-pyrazol-4-yl]pyrazolo[1,5-a]pyrimidine-3-carboxamide] | 2 nM
22 | Cn1cc(NC(=O)c2cnn3ccc(N[C@H]4CNC[C@H](F)C4)nc23)c(C(F)F)n1 [Example 261, N-[3-(difluoromethyl)-1-methyl-1H-pyrazol-4-yl]-5-{[(3R,5R)-5-fluoropiperidin-3-yl]amino}pyrazolo[1,5-a]pyrimidine-3-carboxamide trifluoroacetate] | 0.5 nM
23 | Cn1cc(NC(=O)c2cnn3ccc(N[C@@H]4CNC[C@H](F)C4)nc23)c(C(F)F)n1 [Example 259, N-[3-(difluoromethyl)-1-methyl-1H-pyrazol-4-yl]-5-{[(3S,5R)-5-fluoropiperidin-3-yl]amino}pyrazolo[1,5-a]pyrimidine-3-carboxamide] | 156 nM
24 | Cn1cc(NC(=O)c2cnn3ccc(N4C[C@@H]5CN[C@@H](C5)C4)nc23)c(C(F)F)n1 (single isomer, unassigned) [Example 183, 5-[(1S,5S)- or (1R,5R)-3,6-diazabicyclo[3.2.1]oct-3-yl]-N-[3-(difluoromethyl)-1-methyl-1H-pyrazol-4-yl]pyrazolo[1,5-a]pyrimidine-3-carboxamide trifluoroacetate] | 6 nM
25 | O=C(Nc1ccsc1Cl)c1cnn2ccc(N[C@@H]3CCCC[C@@H]3O)nc12 [Example 185, N-(2-chlorothiophen-3-yl)-5-{[(1R,2S)-2-hydroxycyclohexyl]amino} pyrazolo[1,5-a]pyrimidine-3-carboxamide] | 1580 nM
26 | Cn1cc(NC(=O)c2cnn3ccc(N4CCNC(C(F)(F)F)C4)nc23)c(C(F)(F)F)n1 (stereo not drawn) [Example 15, N-[1-methyl-3-(trifluoromethyl)-1H-pyrazol-4-yl]-5-(3-(trifluoromethyl)piperazin-1-yl]pyrazolo[1,5-a]pyrimidine-3-carboxamide] | 113 nM

same assay, conditions: IRAK4 IC50 (nM), IMAP fluorescence polarization, 0.5 nM GST tagged IRAK4, 100 μM ATP, 30 minutes at 25° C.

Row | Compound | IC50
27 | Cn1cc(NC(=O)c2cnn3ccc(N[C@@H]4CCCC(O)[C@@H]4N)nc23)c(C(F)(F)F)n1 (single isomer, unassigned) [Example 201, 5-{[(1R,2R)- or (1S,2S)-2-amino-3-hydroxycyclohexyl]amino}-N-[1-methyl-3-(trifluoromethyl)-1H-pyrazol-4-yl]pyrazolo[1,5-a]pyrimidine-3-carboxamide] | 4 nM
